From paper PMC4389228, “Ainsliadimer A selectively inhibits IKKα/β by covalently binding a conserved cysteine” (Nature Communications, 2015) come the findings set out here.

The target in one experiment is T1, IKKβ (Homo sapiens, UniProt O14920).
T1 construct: gene IKBKB; purified Flag-IKKβ
T1 sequence (O14920 1-756): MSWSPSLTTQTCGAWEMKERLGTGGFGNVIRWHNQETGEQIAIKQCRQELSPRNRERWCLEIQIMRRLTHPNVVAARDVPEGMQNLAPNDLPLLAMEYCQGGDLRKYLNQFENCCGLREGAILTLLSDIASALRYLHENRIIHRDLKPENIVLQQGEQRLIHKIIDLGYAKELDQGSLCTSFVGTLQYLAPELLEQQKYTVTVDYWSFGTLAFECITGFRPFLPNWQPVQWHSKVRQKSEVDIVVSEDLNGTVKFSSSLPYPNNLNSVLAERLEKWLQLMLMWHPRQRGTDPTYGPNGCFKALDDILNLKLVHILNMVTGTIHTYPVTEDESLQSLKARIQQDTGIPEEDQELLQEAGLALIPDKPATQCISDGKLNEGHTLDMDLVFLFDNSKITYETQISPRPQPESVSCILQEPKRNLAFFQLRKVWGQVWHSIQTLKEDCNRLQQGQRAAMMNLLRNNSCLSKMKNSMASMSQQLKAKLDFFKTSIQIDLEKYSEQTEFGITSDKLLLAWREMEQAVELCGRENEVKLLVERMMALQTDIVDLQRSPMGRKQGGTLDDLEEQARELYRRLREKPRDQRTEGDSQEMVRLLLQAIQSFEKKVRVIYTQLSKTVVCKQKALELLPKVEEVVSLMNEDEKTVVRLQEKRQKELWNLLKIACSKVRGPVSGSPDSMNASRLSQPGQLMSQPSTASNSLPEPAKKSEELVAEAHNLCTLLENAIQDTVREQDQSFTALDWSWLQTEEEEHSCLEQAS
Put plainly: direct biotin labelling of purified protein, streptavidin pull-down and blot, competed by ainsliadimer A; time-dependent binding.

A further experiment has as its target T2, IKKα (Homo sapiens, UniProt O15111).
T2 construct: gene CHUK; purified Flag-IKKα
T2 sequence (O15111 1-745): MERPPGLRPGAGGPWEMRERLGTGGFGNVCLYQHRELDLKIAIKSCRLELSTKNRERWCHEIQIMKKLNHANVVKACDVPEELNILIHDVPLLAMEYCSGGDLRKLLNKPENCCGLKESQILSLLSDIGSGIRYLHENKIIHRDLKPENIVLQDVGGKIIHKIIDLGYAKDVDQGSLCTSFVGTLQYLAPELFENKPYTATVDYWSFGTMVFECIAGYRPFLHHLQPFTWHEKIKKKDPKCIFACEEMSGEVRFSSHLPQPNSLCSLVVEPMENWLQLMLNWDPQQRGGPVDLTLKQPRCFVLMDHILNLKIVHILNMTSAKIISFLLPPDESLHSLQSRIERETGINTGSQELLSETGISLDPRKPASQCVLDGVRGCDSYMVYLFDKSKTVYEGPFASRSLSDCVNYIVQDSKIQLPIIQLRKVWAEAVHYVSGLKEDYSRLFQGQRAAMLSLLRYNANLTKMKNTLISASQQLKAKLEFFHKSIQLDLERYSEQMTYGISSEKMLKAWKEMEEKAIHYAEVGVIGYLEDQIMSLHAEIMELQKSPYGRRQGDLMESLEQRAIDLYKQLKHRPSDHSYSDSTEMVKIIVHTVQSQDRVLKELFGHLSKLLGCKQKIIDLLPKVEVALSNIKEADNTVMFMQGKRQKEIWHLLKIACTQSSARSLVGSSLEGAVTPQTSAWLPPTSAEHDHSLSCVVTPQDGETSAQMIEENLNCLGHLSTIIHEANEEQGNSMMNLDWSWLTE
Put plainly: direct biotin labelling of purified protein, streptavidin pull-down and blot. The experiment is classed as binding.

In the case of `C=C1C(=O)O[C@@H]2[C@@H]3[C@@H](C[C@H](OC(=O)CCOCCOCCOCCNC(=O)CCCC[C@@H]4SC[C@@H]5NC(=O)N[C@@H]54)[C@]34CC[C@]3(O)[C@@H]5[C@H]6OC(=O)C(=C)[C@@H]6CCC(=C)[C@@H]5C[C@]43O)C(=C)CC[C@@H]12` [Probe], at IKKβ, the “direct biotin labelling of purified protein, streptavidin pull-down and blot, co” value was “we also observed a similar interaction pattern between Probe and recombinant IKKβ (Fig. 4d)”. Also, the “direct biotin labelling of purified protein, streptavidin pull-down and blot” value at IKKα is “suggesting that there is a strong interaction between Probe and recombinant IKKα”.
